# Experiment: Transcellular transport test using Caco2 cell
# Assay type: in vitro ADME
# Details: human, Caco-2, apical-to-basolateral (A-to-B), pH=7.4, 10 µM compound
# Protocol: Caco2 cells (purchased from ATCC) were cultured in DMEM medium (Thermo Fisher Scientific, Inc., 11965) containing 10% FBS (Thermo Fisher Scientific, Inc., 10082) and 1% penicillin/streptomycin/amphotericin B (Thermo Fisher Scientific, Inc., 15240). A transcellular transport test was carried out in accordance with MultiScreen Caco2 Drug Transport Assembly in a 96-well system (Application Note AN1727EN, MultiScreen Caco-2 Assay System, Merck) by partially modifying it. The Caco2 cells were inoculated at a cell density of 4×10^4 cells/well onto a micropore polycarbonate insert of a 96-well plate (Merck, Millcell-96 culture insert plate 0.4 μm pore size, well membrane area=0.11 cm^2, PSHT004S5) and cultured for 20 to 22 days, and the resulting monolayer was used in the transcellular transport test. The medium of the inoculated cells was replaced with a fresh one every 3 to 4 days.
# Apical-to-basolateral (A-to-B) transport in the Caco2 cell monolayer membrane was performed by using HBSS (Thermo Fisher Scientific, Inc., 14025) medium (pH=7.4) containing 20 mM HEPES (Thermo Fisher Scientific, Inc., 15630), and adding HEPES-containing HBSS medium containing 10 µM compound (a 10 mM solution of the compound in DMSO was added at a 1000-fold dilution; final DMSO concentration: 0.1%) at 75 μL/well to the apical side and HEPES-containing HBSS medium supplemented with no compound at 250 μL/well to the basolateral side, followed by culture at 37° C. for 90 minutes. After culture, a 100 μL aliquot was collected from the basolateral side, and the concentration of a permeated compound was measured by LC-MS/MS under measurement conditions mentioned later. Papp (apparent permeability; cm/sec) was calculated from the determined concentration. Papp was determined according to the expression given below by calculating the slope (dA/dt; nmol/sec) of a straight line drawn between two points 0 minutes and zero amount of the compound in a graph plotted with an assay time (90 min) on the abscissa against the amount of the compound in the solution on the permeated side on the ordinate. As for an assay concentration, the concentration in the compound in the HEPES-containing HBSS medium containing the added compound was measured by UV-HPLC under measurement conditions mentioned later.
# C0: assay concentration, S: plate membrane area=0.11 cm^2
# • LC: LC20 or LC30 HPLC system manufactured by Shimadzu Corp. • Column: Phenomenex Kinetex C18 (50 mm×2.1 mm, 2.6 μm) • Column temperature: 40° C. • Flow rate: 0.3 mL/min • Mobile phase A: 0.1% aqueous formic acid solution • Mobile phase B: 0.1% formic acid, 50% acetonitrile/methanol mixed solution • Gradient: 0-2 min; A/B=90/10 to 10/90, 2-3 min; A/B=10/90, 3-3.01 min; A/B=10/90 to 90/10 • MS: Q-Trap3200 manufactured by AB Sciex Pte. Ltd. • Ionization: ESI • Mode: Positive
# • LC: LC20 or LC30 HPLC system manufactured by Shimadzu Corp. • Column: Phenomenex Kinetex C18 (100 mm×2.1 mm, 2.6 μm) • Column temperature: 40° C. • Flow rate: 0.25 mL/min • Mobile phase A: 0.1% aqueous formic acid solution • Mobile phase B: 0.1% formic acid, 50% acetonitrile/methanol mixed solution • Gradient: 0-3 min; A/B=90/10, 3-11 min; A/B=90/10 to 5/95, 11-15 min; A/B=5/95, 15-15.1 min; A/B=5/95 to 90/10 • UV detector: photodiode array detector
# A: Papp>1×10^−6 (cm/sec), B: 1×10^−6 (cm/sec)≥Papp>5×10^−7 (cm/sec), C: 5×10^−7 (cm/sec)≥Papp>1×10^−7 (cm/sec), or D: Papp≤1×10^−7 (cm/sec).
row,SMILES,"Papp A→B at 90 min, 10 µM [×10⁻⁶ cm/s]"
1,"O=C(O)C[C@H](NC(=O)CNC(=O)c1cc(NC2=NCC(F)CN2)c2cn[nH]c2c1)c1cc(Br)cc(OC(F)F)c1 (stereo partly drawn) [26-(b), (3S)-3-(3-bromo-5-(difluoromethoxy)phenyl)-3-(2-(4-((5-fluoro-1,4,5,6-tetrahydropyrimidin-2-yl)amino)-1H-indazole-6-carboxamido)acetamido)propanoic acid]",> 1
2,"O=C(O)C[C@H](NC(=O)CNC(=O)c1cc(NC2=NCC(F)CN2)c2cn[nH]c2c1)c1cc(Cl)c(F)c(C(F)(F)F)c1 (stereo partly drawn) [15-(b), (3S)-3-(3-chloro-4-fluoro-5-(trifluoromethyl)phenyl)-3-(2-(4-((5-fluoro-1,4,5,6-tetrahydropyrimidin-2-yl)amino)-1H-indazole-6-carboxamido)acetamido)propanoic acid]",> 1
3,"O=C(O)C[C@H](NC(=O)CNC(=O)c1cc(NC2=NCCCN2)c2cn[nH]c2c1)c1cc(Cl)cc(C(F)(F)F)c1 [51-(b), (S)-3-(3-chloro-5-(trifluoromethyl)phenyl)-3-(2-(4-((1,4,5,6-tetrahydropyrimidin-2-yl)amino)-1H-indazole-6-carboxamido)acetamido)propanoic acid]",> 1
4,"O=C(O)C[C@H](NC(=O)CNC(=O)c1cc(NC2=NCC(F)CN2)c2cn[nH]c2c1)c1cc(OC(F)(F)F)ccc1F (stereo partly drawn) [33-(b), (3S)-3-(2-(4-((5-fluoro-1,4,5,6-tetrahydropyrimidin-2-yl)amino)-1H-indazole-6-carboxamido)acetamido)-3-(2-fluoro-5-(trifluoromethoxy)phenyl)propanoic acid]",> 1
5,"O=C(O)C[C@H](NC(=O)CNC(=O)c1cc(NC2=NCC(F)CN2)c2cn[nH]c2c1)c1cccc(OC(F)F)c1 (stereo partly drawn) [37-(b), (3S)-3-(3-(difluoromethoxy)phenyl)-3-(2-(4-((5-fluoro-1,4,5,6-tetrahydropyrimidin-2-yl)amino)-1H-indazole-6-carboxamido)acetamido)propanoic acid]",> 1
6,"O=C(O)C[C@H](NC(=O)CNC(=O)c1cc(NC2=NCC(F)CN2)c2cn[nH]c2c1)c1cccc(C(F)(F)F)c1Cl (stereo partly drawn) [10-(b), (3S)-3-(2-chloro-3-(trifluoromethyl)phenyl)-3-(2-(4-((5-fluoro-1,4,5,6-tetrahydropyrimidin-2-yl)amino)-1H-indazole-6-carboxamido)acetamido)propanoic acid]",> 1
7,"O=C(O)C[C@H](NC(=O)CNC(=O)c1cc(NC2=NCC(F)CN2)c2cn[nH]c2c1)c1cc(Br)cc(Br)c1 (stereo partly drawn) [19-(b), (3S)-3-(3,5-dibromophenyl)-3-(2-(4-((5-fluoro-1,4,5,6-tetrahydropyrimidin-2-yl)amino)-1H-indazole-6-carboxamido)acetamido)propanoic acid]",> 1
8,"O=C(O)C[C@H](NC(=O)CNC(=O)c1cc(NC2=NCC(F)CN2)c2cn[nH]c2c1)c1cc(I)cc(C(F)(F)F)c1 (stereo partly drawn) [3-(b), (3S)-3-(2-(4-((5-fluoro-1,4,5,6-tetrahydropyrimidin-2-yl)amino)-1H-indazole-6-carboxamido)acetamido)-3-(3-iodo-5-(trifluoromethyl)phenyl)propanoic acid]",> 1
9,"O=C(O)C[C@H](NC(=O)CNC(=O)c1cc(NC2=NCC(F)CN2)c2cn[nH]c2c1)c1cccc(C(F)F)c1 (stereo partly drawn) [38-(b), (3S)-3-(3-(difluoromethyl)phenyl)-3-(2-(4-((5-fluoro-1,4,5,6-tetrahydropyrimidin-2-yl)amino)-1H-indazole-6-carboxamido)acetamido)propanoic acid]",> 1
10,"O=C(O)C[C@H](NC(=O)CNC(=O)c1cc(NC2=NCC(F)CN2)c2cn[nH]c2c1)c1cc(Br)cc(C(F)(F)F)c1 (stereo partly drawn) [2-(b), (3S)-3-(3-bromo-5-(trifluoromethyl)phenyl)-3-(2-(4-((5-fluoro-1,4,5,6-tetrahydropyrimidin-2-yl)amino)-1H-indazole-6-carboxamido)acetamido)propanoic acid]",0.5 to 1
11,"O=C(O)C[C@H](NC(=O)CNC(=O)c1cc(NC2=NCC(F)CN2)c2cn[nH]c2c1)c1cccc(-n2cccn2)c1 (stereo partly drawn) [43-(b), (3S)-3-(3-(1H-pyrazol-1-yl)phenyl)-3-(2-(4-((5-fluoro-1,4,5,6-tetrahydropyrimidin-2-yl)amino)-1H-indazole-6-carboxamido)acetamido)propanoic acid]",> 1
12,"O=C(O)C[C@H](NC(=O)CNC(=O)c1cc(NC2=NCC(F)CN2)cc2[nH]ncc12)c1cc(Br)cc(C(F)(F)F)c1 (stereo partly drawn) [53-(b), (3S)-3-(3-bromo-5-(trifluoromethyl)phenyl)-3-(2-(6-((5-fluoro-1,4,5,6-tetrahydropyrimidin-2-yl)amino)-1H-indazole-4-carboxamido)acetamido)propanoic acid]",0.1 to 0.5
13,"O=C(O)C[C@H](NC(=O)CNC(=O)c1cc(NC2=NCC(F)CN2)c2cn[nH]c2c1)c1ccc(F)c(OC(F)(F)F)c1 (stereo partly drawn) [34-(b), (3S)-3-(2-(4-((5-fluoro-1,4,5,6-tetrahydropyrimidin-2-yl)amino)-1H-indazole-6-carboxamido)acetamido)-3-(4-fluoro-3-(trifluoromethoxy)phenyl)propanoic acid]",> 1
14,"O=C(O)C[C@H](NC(=O)CNC(=O)c1cc(NC2=NCC(F)CN2)c2cn[nH]c2c1)c1cc(OC(F)F)cc(C(F)(F)F)c1 (stereo partly drawn) [24-(b), (3S)-3-(3-(difluoromethoxy)-5-(trifluoromethyl)phenyl)-3-(2-(4-((5-fluoro-1,4,5,6-tetrahydropyrimidin-2-yl)amino)-1H-indazole-6-carboxamido)acetamido)propanoic acid]",0.5 to 1
15,"O=C(O)C[C@H](NC(=O)CNC(=O)c1cc(NC2=NCC(F)CN2)c2cn[nH]c2c1)c1ccc(OC(F)F)cc1 (stereo partly drawn) [46-(b), (3S)-3-(4-(difluoromethoxy)phenyl)-3-(2-(4-((5-fluoro-1,4,5,6-tetrahydropyrimidin-2-yl)amino)-1H-indazole-6-carboxamido)acetamido)propanoic acid]",> 1
16,"O=C(O)C[C@H](NC(=O)CNC(=O)c1cc(NC2=NCC(F)CN2)c2cn[nH]c2c1)c1cc(Br)cc(OC(F)(F)F)c1 (stereo partly drawn) [32-(b), (3S)-3-(3-bromo-5-(trifluoromethoxy)phenyl)-3-(2-(4-((5-fluoro-1,4,5,6-tetrahydropyrimidin-2-yl)amino)-1H-indazole-6-carboxamido)acetamido)propanoic acid]",> 1
17,"O=C(O)C[C@H](NC(=O)CNC(=O)c1cc(NC2=NCC(F)CN2)c2cn[nH]c2c1)c1cc(Cl)ccc1F (stereo partly drawn) [22-(b), (3S)-3-(5-chloro-2-fluorophenyl)-3-(2-(4-((5-fluoro-1,4,5,6-tetrahydropyrimidin-2-yl)amino)-1H-indazole-6-carboxamido)acetamido)propanoic acid]",> 1
18,"Cc1ccc([C@H](CC(=O)O)NC(=O)CNC(=O)c2cc(NC3=NCC(F)CN3)c3cn[nH]c3c2)cc1C(F)(F)F (stereo partly drawn) [14-(b), (3S)-3-(2-(4-((5-fluoro-1,4,5,6-tetrahydropyrimidin-2-yl)amino)-1H-indazole-6-carboxamido)acetamido)-3-(4-methyl-3-(trifluoromethyl)phenyl)propanoic acid]",> 1
19,O=C(O)C[C@H](NC(=O)CNC(=O)c1cc(NC2=NCC(F)CN2)c2cn[nH]c2c1)c1cc(Cl)cc(C(F)(F)F)c1 (some centres unmarked) [1-(b)],> 1
20,"O=C(O)C[C@H](NC(=O)CNC(=O)c1cc(NC2=NCC(F)CN2)c2cn[nH]c2c1)c1cccc(OC2CC2)c1 (stereo partly drawn) [40-(b), (3S)-3-(3-cyclopropoxyphenyl)-3-(2-(4-((5-fluoro-1,4,5,6-tetrahydropyrimidin-2-yl)amino)-1H-indazole-6-carboxamido)acetamido)propanoic acid]",> 1
